Test results: patent US20190082696A1, “METHOD FOR CONTROLLING PESTS OF PLANTS” (BASF SE, priority 2016, published 2019)

System: green peach aphid (Myzus persicae)
Experiment: Biological activity of mixtures: green peach aphid systemic test with Colby analysis
Format: in vivo
Conditions: 3 days
Description: Synergism can be described as an interaction where the combined effect of two or more compounds is greater than the sum of the individual effects of each of the compounds. The presence of a synergistic effect in terms of percent control, between two mixing partners (X and Y) can be calculated using the Colby equation (Colby, S. R., 1967, Calculating Synergistic and Antagonistic Responses in Herbicide Combinations, Weeds, 15, 20-22):
When the observed combined control effect is greater than the expected combined control effect (E), then the combined effect is synergistic.
The analysis of synergism or antagonism between the mixtures or compositions was determined using Colby's equation.
For evaluating control of green peach aphid (Myzus persicae) through systemic means the test unit consisted of 96-well-microtiter plates containing liquid artificial diet under an artificial membrane.
The compounds or mixtures were formulated using a solution containing 75% water and 25% DMSO. Different concentrations of formulated compounds or mixtures were pipetted into the aphid diet, using a custom built pipetter, at two replications. […]
After application, 5-8 adult aphids were placed on the artificial membrane inside the microtiter plate wells. […] Aphid mortality and fecundity was then visually assessed.

| Structure (SMILES) | Average Control % (10 ppm) [%] | Average Control % (0.4 ppm) [%] |
| --- | --- | --- |
| CC1(C)C(C=C(Cl)Cl)C1C(=O)OC(C#N)c1cccc(Oc2ccccc2)c1 (centres unmarked) [Alphacypermethrin] | 0 | – |
| CCC(=O)N1CC2(C1)OCc1cc(C3=NOC(c4cc(Cl)c(F)c(Cl)c4)(C(F)(F)F)C3)ccc12 (centres unmarked) [Compound I-1] | – | 0 |
